Legend:
LLC allografts = assay: Spontaneous lung metastasis of LLC allografts; format: in vivo, C57BL/6 mice; details: 80 mg/kg orally, daily for 2 weeks
Method: We used the IVIS-Spectrum microCT and Living Image (ver. 4.2) software (PerkinElmer, Alameda, CA, USA) for monitoring metastatic tumor formation in the lungs. The instrument was operated according to the manufacturer's instruction. To facilitate the detection of photons emitted from metastatic lung tumors, we performed ex vivo imaging analysis. In brief, mice were injected at 60 mg/kg with the 15 mg/mL stock of luciferin prior to anesthesia. After 10-15 min, mice were euthanized, and lung tissues were excised and placed into a 60 mm dish. Tissues were immediately imaged after exposure for 1 min.

NSCLC cell lines = assay: MTT assay, viability of various NSCLC cell lines; format: cell-based; details: Homo sapiens; NSCLC cells with various genetic backgrounds and histologies
Method: Cells were seeded into 96-well plates at a density of 1-2 × 10^3 cells/well and incubated for 24 h. Cells were treated with vehicle or various concentrations of test compounds for two (PC9 and PC9/ER cells) or three (other cells) days. Cells were further incubated with MTT solution (final concentration of 500 μg/mL) for 4 h at 37 °C. The formazan products were dissolved in dimethyl sulfoxide (DMSO), and the absorbance was measured at 570 nm. The data are presented as a percentage of the control group.

p38-beta = target: T1, p38-beta (Homo sapiens, UniProt Q15759); assay: KINOMEscan competition binding assay; details: LL6 at 10 μM; read-out: Percent Control
T1 construct: purchased DiscoverX KINOMEscan
Method: (§1) Kd values were obtained by KINOMEscan from DiscoverX (San Diego, CA, USA). To briefly summarize, Kd was measured by a competition binding assay that quantitatively measures the ability of a compound to compete with an immobilized ligand. […] Dose response curves of 11 points are obtained for Kd values, which are measured in duplicate. See more details in the cited references [39]-[42] and see also at www.discoverx.com.

CSNK1G2 = target: T2, CSNK1G2 (Homo sapiens, UniProt P78368); assay: KINOMEscan competition binding assay; details: LL6 at 10 μM; read-out: Percent Control
T2 construct: purchased DiscoverX KINOMEscan
Method: as §1

PIM3 = target: T3, PIM3 (Homo sapiens, UniProt Q86V86); assay: KINOMEscan competition binding assay; details: LL6 at 10 μM; read-out: Percent Control
T3 construct: purchased DiscoverX KINOMEscan
Method: as §1

FGFR2 = target: T4, FGFR2 (Homo sapiens, UniProt P21802); assay: KINOMEscan competition binding assay; details: LL6 at 10 μM; read-out: Percent Control
T4 construct: purchased DiscoverX KINOMEscan
Method: as §1

DCAMKL1 = target: T5, DCAMKL1 (Homo sapiens, UniProt O15075); assay: KINOMEscan competition binding assay; details: LL6 at 10 μM; read-out: Percent Control
T5 construct: purchased DiscoverX KINOMEscan
Method: as §1

CSNK1D = target: T6, CSNK1D (Homo sapiens, UniProt P48730); assay: KINOMEscan competition binding assay; details: LL6 at 10 μM; read-out: Percent Control
T6 construct: purchased DiscoverX KINOMEscan
Method: as §1

PDGFRB = target: T7, PDGFRB (Homo sapiens, UniProt P09619); assay: KINOMEscan competition binding assay
T7 construct: purchased DiscoverX KINOMEscan
T7 sequence (P09619 33-1106): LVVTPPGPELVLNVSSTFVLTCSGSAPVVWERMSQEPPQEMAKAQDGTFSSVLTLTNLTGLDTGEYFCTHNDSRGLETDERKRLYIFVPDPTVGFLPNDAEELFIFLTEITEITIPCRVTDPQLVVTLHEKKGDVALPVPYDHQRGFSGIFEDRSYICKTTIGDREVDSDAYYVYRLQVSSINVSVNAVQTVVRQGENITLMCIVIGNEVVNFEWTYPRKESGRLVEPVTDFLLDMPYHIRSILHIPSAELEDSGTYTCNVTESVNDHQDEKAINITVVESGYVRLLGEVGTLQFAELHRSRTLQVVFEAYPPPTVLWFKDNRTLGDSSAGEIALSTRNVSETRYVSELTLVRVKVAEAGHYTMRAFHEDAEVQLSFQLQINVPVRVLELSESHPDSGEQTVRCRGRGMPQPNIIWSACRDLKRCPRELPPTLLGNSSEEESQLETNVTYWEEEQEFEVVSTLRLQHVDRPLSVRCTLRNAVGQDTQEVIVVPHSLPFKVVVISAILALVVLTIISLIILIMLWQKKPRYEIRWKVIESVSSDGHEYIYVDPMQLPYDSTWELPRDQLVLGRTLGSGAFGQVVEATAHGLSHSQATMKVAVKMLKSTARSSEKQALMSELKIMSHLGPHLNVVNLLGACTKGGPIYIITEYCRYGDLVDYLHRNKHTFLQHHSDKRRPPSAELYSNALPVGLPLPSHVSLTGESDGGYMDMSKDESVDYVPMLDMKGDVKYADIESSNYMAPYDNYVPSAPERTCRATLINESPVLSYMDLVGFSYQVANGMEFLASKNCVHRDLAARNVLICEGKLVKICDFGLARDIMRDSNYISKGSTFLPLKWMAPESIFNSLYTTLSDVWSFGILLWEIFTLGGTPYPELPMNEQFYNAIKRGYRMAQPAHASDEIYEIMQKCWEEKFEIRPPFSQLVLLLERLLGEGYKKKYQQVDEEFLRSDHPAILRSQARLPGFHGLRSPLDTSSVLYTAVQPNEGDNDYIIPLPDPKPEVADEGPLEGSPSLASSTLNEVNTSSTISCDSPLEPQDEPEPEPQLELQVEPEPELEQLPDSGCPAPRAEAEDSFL
Method: as §1

ALK = target: T8, ALK (Homo sapiens, UniProt Q9UM73); assay: KINOMEscan competition binding assay; details: LL6 at 10 μM; read-out: Percent Control
T8 construct: purchased DiscoverX KINOMEscan
Method: as §1

EPHA2 = target: T9, EPHA2 (Homo sapiens, UniProt P29317); assay: KINOMEscan competition binding assay; details: LL6 at 10 μM; read-out: Percent Control
T9 construct: purchased DiscoverX KINOMEscan
Method: as §1

[1] = target: T10, TYK2(JH1domain-catalytic) (Homo sapiens, UniProt P29597); assay: KINOMEscan competition binding assay; details: LL6 at 10 μM; read-out: Percent Control
T10 construct: TYK2(JH1domain-catalytic); purchased DiscoverX KINOMEscan
Method: as §1

IKK-beta = target: T11, IKK-beta (Homo sapiens, UniProt O14920); assay: KINOMEscan competition binding assay; details: LL6 at 10 μM; read-out: Percent Control
T11 construct: purchased DiscoverX KINOMEscan
T11 sequence (O14920 whole entry): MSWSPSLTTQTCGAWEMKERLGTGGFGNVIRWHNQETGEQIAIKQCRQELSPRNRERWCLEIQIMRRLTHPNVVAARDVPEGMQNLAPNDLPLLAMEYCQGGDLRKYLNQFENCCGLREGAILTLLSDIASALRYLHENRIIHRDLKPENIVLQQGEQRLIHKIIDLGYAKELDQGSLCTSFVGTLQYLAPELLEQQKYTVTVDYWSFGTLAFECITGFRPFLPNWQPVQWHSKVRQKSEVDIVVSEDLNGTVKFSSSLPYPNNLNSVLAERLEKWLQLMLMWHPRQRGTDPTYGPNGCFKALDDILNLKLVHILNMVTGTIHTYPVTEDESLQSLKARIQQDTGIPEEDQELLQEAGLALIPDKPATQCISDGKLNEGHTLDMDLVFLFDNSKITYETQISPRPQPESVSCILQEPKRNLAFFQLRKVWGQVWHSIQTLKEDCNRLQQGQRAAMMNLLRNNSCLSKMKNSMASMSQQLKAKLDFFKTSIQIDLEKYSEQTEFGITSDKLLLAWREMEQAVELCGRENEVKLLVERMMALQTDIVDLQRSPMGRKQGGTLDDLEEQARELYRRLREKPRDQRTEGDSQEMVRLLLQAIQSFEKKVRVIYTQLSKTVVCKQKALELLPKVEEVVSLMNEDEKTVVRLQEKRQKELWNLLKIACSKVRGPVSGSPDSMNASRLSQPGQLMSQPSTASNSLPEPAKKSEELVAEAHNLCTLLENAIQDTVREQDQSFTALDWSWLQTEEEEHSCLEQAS
Method: as §1

MEK2 = target: T12, MEK2 (Homo sapiens, UniProt P36507); assay: KINOMEscan competition binding assay; details: LL6 at 10 μM; read-out: Percent Control
T12 construct: purchased DiscoverX KINOMEscan
Method: as §1

MEK1 = target: T13, MEK1 (Homo sapiens, UniProt Q02750); assay: KINOMEscan competition binding assay; details: LL6 at 10 μM; read-out: Percent Control
T13 construct: purchased DiscoverX KINOMEscan
Method: as §1

RIOK2 = target: T14, RIOK2 (Homo sapiens, UniProt Q9BVS4); assay: KINOMEscan competition binding assay; details: LL6 at 10 μM; read-out: Percent Control
T14 construct: purchased DiscoverX KINOMEscan
Method: as §1

CDK3 = target: T15, CDK3 (Homo sapiens, UniProt Q00526); assay: KINOMEscan competition binding assay; details: LL6 at 10 μM; read-out: Percent Control
T15 construct: purchased DiscoverX KINOMEscan
T15 sequence (Q00526 whole entry): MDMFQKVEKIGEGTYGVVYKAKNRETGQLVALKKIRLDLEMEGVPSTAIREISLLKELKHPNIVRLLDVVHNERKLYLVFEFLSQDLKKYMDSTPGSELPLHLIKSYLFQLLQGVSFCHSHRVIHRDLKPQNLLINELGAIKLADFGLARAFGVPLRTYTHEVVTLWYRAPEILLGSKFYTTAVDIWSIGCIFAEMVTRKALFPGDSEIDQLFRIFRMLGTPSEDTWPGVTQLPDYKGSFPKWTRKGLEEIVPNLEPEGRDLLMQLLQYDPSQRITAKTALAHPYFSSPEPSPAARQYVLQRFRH
Method: as §1

PAK1 = target: T16, PAK1 (Homo sapiens, UniProt Q13153); assay: KINOMEscan competition binding assay; details: LL6 at 10 μM; read-out: Percent Control
T16 construct: purchased DiscoverX KINOMEscan
Method: as §1

MAPKAPK2 = target: T17, MAPKAPK2 (Homo sapiens, UniProt P49137); assay: KINOMEscan competition binding assay; details: LL6 at 10 μM; read-out: Percent Control
T17 construct: purchased DiscoverX KINOMEscan
Method: as §1

ROCK2 = target: T18, ROCK2 (Homo sapiens, UniProt O75116); assay: KINOMEscan competition binding assay; details: LL6 at 10 μM; read-out: Percent Control
T18 construct: purchased DiscoverX KINOMEscan
Method: as §1

PIK3CG = target: T19, PIK3CG (Homo sapiens, UniProt P48736); assay: KINOMEscan competition binding assay; details: LL6 at 10 μM; read-out: Percent Control
T19 construct: purchased DiscoverX KINOMEscan
Method: as §1

TRKA = target: T20, TRKA (Homo sapiens, UniProt P04629); assay: KINOMEscan competition binding assay; details: LL6 at 10 μM; read-out: Percent Control
T20 construct: purchased DiscoverX KINOMEscan
Method: as §1

RAF1 = target: T21, RAF1 (Homo sapiens, UniProt P04049); assay: KINOMEscan competition binding assay; details: LL6 at 10 μM; read-out: Percent Control
T21 construct: purchased DiscoverX KINOMEscan
Method: as §1

PLK4 = target: T22, PLK4 (Homo sapiens, UniProt O00444); assay: KINOMEscan competition binding assay; details: LL6 at 10 μM; read-out: Percent Control
T22 construct: purchased DiscoverX KINOMEscan
Method: as §1

BRAF = target: T23, BRAF (Homo sapiens, UniProt P15056); assay: KINOMEscan competition binding assay; details: LL6 at 10 μM; read-out: Percent Control
T23 construct: purchased DiscoverX KINOMEscan
T23 sequence (P15056 whole entry): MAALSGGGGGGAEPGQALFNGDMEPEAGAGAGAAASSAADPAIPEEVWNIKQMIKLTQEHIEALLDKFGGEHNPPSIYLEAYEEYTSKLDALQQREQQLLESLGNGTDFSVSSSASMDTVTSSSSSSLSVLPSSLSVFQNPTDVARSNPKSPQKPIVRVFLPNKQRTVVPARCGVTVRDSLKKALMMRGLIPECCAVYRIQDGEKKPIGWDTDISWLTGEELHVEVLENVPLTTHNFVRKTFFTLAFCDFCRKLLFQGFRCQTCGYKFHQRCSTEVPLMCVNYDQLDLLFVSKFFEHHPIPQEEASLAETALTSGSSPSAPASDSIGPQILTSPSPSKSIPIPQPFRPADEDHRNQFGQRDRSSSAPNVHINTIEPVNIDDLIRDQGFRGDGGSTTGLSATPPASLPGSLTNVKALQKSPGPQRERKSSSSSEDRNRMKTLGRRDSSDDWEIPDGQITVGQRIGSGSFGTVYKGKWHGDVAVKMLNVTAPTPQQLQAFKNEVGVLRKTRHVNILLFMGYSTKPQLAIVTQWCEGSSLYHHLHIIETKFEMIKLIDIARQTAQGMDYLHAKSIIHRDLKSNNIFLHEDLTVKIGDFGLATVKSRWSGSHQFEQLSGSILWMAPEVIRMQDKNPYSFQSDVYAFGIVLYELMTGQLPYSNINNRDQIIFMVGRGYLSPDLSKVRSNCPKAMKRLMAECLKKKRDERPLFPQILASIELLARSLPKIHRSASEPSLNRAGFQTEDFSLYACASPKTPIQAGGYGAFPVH
Method: as §1

FGFR3 = target: T24, FGFR3 (Homo sapiens, UniProt P22607); assay: KINOMEscan competition binding assay; details: LL6 at 10 μM; read-out: Percent Control
T24 construct: purchased DiscoverX KINOMEscan
Method: as §1

YANK3 = target: T25, YANK3 (Homo sapiens, UniProt Q86UX6); assay: KINOMEscan competition binding assay; details: LL6 at 10 μM; read-out: Percent Control
T25 construct: purchased DiscoverX KINOMEscan
Method: as §1

BRAF(V600E) = target: T26, BRAF(V600E) (Homo sapiens, UniProt P15056, V600E); assay: KINOMEscan competition binding assay; details: LL6 at 10 μM; read-out: Percent Control
T26 construct: purchased DiscoverX KINOMEscan
T26 sequence (P15056 whole entry V600E): as the sequence (P15056 whole entry) above, with V600E counted along it
Method: as §1

PLK3 = target: T27, PLK3 (Homo sapiens, UniProt Q9H4B4); assay: KINOMEscan competition binding assay; details: LL6 at 10 μM; read-out: Percent Control
T27 construct: purchased DiscoverX KINOMEscan
T27 sequence (Q9H4B4 whole entry): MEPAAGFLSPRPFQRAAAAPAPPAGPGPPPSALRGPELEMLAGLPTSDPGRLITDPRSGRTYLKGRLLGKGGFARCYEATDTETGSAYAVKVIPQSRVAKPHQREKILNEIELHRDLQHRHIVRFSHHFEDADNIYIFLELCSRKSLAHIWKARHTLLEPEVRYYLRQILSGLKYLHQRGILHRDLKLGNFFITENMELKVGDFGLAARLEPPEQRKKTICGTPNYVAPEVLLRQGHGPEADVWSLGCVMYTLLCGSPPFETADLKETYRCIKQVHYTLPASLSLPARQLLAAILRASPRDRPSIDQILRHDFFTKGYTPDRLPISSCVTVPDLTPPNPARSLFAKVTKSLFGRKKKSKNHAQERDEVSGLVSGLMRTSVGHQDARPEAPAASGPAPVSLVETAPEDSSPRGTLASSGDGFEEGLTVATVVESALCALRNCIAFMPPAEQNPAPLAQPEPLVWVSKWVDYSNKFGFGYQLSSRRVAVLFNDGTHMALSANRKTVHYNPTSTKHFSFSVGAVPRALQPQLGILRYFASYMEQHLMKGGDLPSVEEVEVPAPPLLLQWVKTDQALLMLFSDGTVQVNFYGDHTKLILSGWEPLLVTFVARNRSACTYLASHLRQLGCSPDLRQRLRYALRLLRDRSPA
Method: as §1

BMPR2 = target: T28, BMPR2 (Homo sapiens, UniProt Q13873); assay: KINOMEscan competition binding assay; details: LL6 at 10 μM; read-out: Percent Control
T28 construct: purchased DiscoverX KINOMEscan
T28 sequence (Q13873 27-1038): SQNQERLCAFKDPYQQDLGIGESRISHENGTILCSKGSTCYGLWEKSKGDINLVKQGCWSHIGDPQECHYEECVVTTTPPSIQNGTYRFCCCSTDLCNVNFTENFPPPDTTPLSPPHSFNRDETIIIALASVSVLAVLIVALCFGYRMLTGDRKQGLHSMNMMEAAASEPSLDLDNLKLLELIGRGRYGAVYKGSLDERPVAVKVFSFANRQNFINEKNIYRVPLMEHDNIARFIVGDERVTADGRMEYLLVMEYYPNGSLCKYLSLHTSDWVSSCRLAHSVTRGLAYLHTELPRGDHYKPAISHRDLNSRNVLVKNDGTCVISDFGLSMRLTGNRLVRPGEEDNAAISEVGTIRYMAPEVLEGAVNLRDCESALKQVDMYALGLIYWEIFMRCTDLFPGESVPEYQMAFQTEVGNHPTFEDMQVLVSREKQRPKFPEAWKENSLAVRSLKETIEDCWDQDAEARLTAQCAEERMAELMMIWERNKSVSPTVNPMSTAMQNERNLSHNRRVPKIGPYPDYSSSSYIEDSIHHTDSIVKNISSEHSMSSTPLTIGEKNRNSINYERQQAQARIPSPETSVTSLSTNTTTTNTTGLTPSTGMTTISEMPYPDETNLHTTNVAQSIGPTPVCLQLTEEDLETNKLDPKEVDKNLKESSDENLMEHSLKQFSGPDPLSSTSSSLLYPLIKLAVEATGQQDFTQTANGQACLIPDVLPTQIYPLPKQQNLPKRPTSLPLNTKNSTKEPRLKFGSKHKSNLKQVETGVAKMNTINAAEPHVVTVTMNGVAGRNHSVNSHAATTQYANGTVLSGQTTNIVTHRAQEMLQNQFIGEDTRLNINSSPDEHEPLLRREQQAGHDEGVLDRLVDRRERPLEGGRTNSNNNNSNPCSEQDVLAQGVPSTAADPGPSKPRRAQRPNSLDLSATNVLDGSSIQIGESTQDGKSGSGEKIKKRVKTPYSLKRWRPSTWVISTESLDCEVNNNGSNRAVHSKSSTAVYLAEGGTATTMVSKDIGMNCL
Method: as §1

JNK1 = target: T29, JNK1 (Homo sapiens, UniProt P45983); assay: KINOMEscan competition binding assay; details: LL6 at 10 μM; read-out: Percent Control
T29 construct: purchased DiscoverX KINOMEscan
Method: as §1

ERBB4 = target: T30, ERBB4 (Homo sapiens, UniProt Q15303); assay: KINOMEscan competition binding assay; details: LL6 at 10 μM; read-out: Percent Control
T30 construct: purchased DiscoverX KINOMEscan
Method: as §1

EGFR = target: T31, EGFR (Homo sapiens, UniProt P00533); assay: KINOMEscan competition binding assay; details: LL6 at 10 μM; read-out: Percent Control
T31 construct: purchased DiscoverX KINOMEscan
Method: as §1

PCTK1 = target: T32, PCTK1 (Homo sapiens, UniProt Q00536); assay: KINOMEscan competition binding assay; details: LL6 at 10 μM; read-out: Percent Control
T32 construct: purchased DiscoverX KINOMEscan
Method: as §1

97 tested kinases = assay: Kinome-wide inhibition profiling (KINOMEscan, TREEspot); format: binding, human; details: 10 µM, > 65% inhibition

With `Nc1ncnc2c1c(-c1ccc(Cl)cc1)nn2CCn1cc(COc2ccc(Nc3nccc(Nc4cnc5ccccc5c4)n3)cc2)nn1` [LL6] the “metastatic tumor nodules in the lungs” value (LLC allografts) was “significantly decreased”, the IC50 (NSCLC cell lines) was ~2.5 µM and the remaining binding at 10 µM (p38-beta) was 65%. The remaining binding at 10 µM (CSNK1G2) was 63%, the remaining binding at 10 µM (PIM3) was 100% and the remaining binding at 10 µM (FGFR2) was 62%. For the same compound, the remaining binding at 10 µM (DCAMKL1) was 100%, the remaining binding at 10 µM (CSNK1D) was 14% and the remaining binding at 10 µM (PDGFRB; LL6 at 10 μM, read-out: Percent Control) was 5%. The inhibition at 10 µM (PDGFRB; PDGFRB, LL6 at 10 µM) was > 65%, the remaining binding at 10 µM (ALK) was 100% and the remaining binding at 10 µM (EPHA2) was 100%. The remaining binding at 10 µM [1] was 100%, the remaining binding at 10 µM (IKK-beta) was 100% and the remaining binding at 10 µM (MEK2) was 95%. For the same compound, the remaining binding at 10 µM (MEK1) was 65%, the remaining binding at 10 µM (RIOK2) was 100% and the remaining binding at 10 µM (CDK3) was 97%. The remaining binding at 10 µM (PAK1) was 100%, the remaining binding at 10 µM (MAPKAPK2) was 100% and the remaining binding at 10 µM (ROCK2) was 100%. For the same compound, the remaining binding at 10 µM (PIK3CG) was 63%, the remaining binding at 10 µM (TRKA) was 100% and the remaining binding at 10 µM (RAF1) was 82%. For the same compound, the remaining binding at 10 µM (PLK4) was 66%, the remaining binding at 10 µM (BRAF) was 45% and the remaining binding at 10 µM (FGFR3) was 89%. The remaining binding at 10 µM (YANK3) was 100%, the remaining binding at 10 µM (BRAF(V600E)) was 22% and the remaining binding at 10 µM (PLK3) was 90%. It also gave a remaining binding at 10 µM (BMPR2) of 40%, a remaining binding at 10 µM (JNK1) of 100% and a remaining binding at 10 µM (ERBB4) of 40%. For the same compound, the remaining binding at 10 µM (EGFR) was 82%, the remaining binding at 10 µM (PCTK1) was 78% and the S-score (97 tested kinases) was 0.12.
